From ChEMBL document CHEMBL1201862, “PubChem BioAssay data set” (2004) come the findings set out here.

In assay [1] the test system is HEK293. The experiment in a line: HEK cell cytotoxicity by LDH release, dose response, cytotoxicity control for IDE activator project, fluorescence, HEK cells (AID 588440).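 Note: cytotoxicity by LDH release measuring loss of membrane integrity.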 It is filed as functional, cell-based. The note with it: Homo sapiens.
The subject of assay [2] is HEK293. As to the kind of experiment: optical interference in Abeta FP readout, dose response, artefact control for IDE activator project, biochemical, fluorescence polarization (AID 588442). Type of assay: functional, cell-based. The settings on record: Homo sapiens. A general note: In fluorescence polarisation assays a small probe gives low polarisation when free and higher when bound to something large.

The target of assay [3] is T1, Insulin-degrading enzyme (Homo sapiens, UniProt P14735).
T1 sequence (P14735 whole entry): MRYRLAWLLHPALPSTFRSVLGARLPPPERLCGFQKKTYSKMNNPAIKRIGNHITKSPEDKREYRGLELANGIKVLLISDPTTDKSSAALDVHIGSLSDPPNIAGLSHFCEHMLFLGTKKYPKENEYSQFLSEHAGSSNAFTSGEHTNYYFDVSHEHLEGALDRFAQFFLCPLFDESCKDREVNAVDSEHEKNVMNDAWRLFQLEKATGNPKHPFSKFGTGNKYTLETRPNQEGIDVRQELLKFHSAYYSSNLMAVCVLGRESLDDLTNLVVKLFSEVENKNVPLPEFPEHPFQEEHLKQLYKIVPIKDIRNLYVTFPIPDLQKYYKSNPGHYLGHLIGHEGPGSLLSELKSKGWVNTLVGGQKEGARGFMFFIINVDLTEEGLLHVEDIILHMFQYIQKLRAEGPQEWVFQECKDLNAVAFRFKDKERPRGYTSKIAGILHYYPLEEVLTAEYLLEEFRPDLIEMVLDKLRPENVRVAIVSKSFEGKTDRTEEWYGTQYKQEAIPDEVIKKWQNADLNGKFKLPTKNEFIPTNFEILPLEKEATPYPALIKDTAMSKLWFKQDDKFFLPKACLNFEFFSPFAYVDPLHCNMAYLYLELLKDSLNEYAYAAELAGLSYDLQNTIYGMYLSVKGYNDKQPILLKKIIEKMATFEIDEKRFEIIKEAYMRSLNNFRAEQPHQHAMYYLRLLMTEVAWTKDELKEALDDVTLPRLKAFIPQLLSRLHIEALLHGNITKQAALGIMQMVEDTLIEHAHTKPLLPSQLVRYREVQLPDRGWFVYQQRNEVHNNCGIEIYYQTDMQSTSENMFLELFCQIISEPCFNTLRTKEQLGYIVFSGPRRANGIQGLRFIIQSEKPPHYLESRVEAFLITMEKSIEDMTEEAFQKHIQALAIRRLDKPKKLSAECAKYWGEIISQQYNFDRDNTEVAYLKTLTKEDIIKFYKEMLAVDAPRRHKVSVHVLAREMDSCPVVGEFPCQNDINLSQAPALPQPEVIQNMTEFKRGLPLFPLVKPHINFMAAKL
As to the kind of experiment: activators of recombinant IDE enzyme, dose response, counter-screen for IDE activator project, biochemical, fluorescence polarization (AID 588681).

For assay [4], the target named is T1, Insulin-degrading enzyme. The experiment in a line: activators of endogenous IDE in HEK cells, dose response, cell-based, fluorescence polarization (AID 588439). Type of assay: functional.
Assay [5] concerns the target T2, Sentrin-specific protease 6 (Homo sapiens, UniProt Q9GZR1).
T2 sequence (Q9GZR1 whole entry): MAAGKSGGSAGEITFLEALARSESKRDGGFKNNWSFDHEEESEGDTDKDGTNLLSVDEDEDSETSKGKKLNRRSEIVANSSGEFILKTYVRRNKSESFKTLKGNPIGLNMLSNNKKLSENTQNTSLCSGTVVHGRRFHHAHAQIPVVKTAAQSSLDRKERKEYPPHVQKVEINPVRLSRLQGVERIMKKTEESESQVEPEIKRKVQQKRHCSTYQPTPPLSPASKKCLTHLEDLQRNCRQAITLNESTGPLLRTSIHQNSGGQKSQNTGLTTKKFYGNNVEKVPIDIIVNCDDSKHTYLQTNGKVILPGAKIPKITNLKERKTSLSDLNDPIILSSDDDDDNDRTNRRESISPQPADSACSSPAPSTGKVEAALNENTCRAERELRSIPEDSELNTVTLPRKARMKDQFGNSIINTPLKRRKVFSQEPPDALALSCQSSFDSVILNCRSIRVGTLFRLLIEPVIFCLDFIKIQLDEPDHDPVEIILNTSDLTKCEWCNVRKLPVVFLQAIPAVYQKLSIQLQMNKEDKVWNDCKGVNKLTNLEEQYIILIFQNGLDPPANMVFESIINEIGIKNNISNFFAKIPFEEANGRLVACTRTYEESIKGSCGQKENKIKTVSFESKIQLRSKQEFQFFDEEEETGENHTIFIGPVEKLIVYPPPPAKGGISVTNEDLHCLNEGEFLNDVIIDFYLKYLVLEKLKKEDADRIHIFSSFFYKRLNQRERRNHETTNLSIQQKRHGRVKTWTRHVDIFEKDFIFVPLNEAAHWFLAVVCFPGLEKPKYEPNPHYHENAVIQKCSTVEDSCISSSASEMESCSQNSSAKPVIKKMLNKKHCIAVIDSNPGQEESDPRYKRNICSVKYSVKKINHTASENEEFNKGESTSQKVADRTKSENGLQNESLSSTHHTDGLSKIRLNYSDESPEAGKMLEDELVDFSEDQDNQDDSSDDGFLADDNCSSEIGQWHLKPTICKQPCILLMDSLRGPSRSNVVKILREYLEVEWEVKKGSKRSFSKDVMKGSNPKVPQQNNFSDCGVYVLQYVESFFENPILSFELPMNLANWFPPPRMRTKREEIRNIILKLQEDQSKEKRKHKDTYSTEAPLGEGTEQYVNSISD
Type of assay: functional.

Assay [6] is described as follows: inhibitors of firefly luciferase expression or activity, dose response, H4 neuroglioma cells, luminescence (AID 1990). Type of assay: functional, cell-based.
Assay [7] has as its system Streptococcus. As to the kind of experiment: Group A Streptococcus viability loss, dose response, counter-screen for streptokinase expression inhibitor project, luminescence, BacTiterGlo (AID 1915).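 Note: potency for reduction of bacterial viability or growth.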 It is filed as functional, organism-based. A general note: A counterscreen serves to expose hits that act by an unwanted route or on another target.
Assay [8] has as its target T3, Sentrin-specific protease 7 (Homo sapiens, UniProt Q9BQF6).
T3 sequence (Q9BQF6 whole entry): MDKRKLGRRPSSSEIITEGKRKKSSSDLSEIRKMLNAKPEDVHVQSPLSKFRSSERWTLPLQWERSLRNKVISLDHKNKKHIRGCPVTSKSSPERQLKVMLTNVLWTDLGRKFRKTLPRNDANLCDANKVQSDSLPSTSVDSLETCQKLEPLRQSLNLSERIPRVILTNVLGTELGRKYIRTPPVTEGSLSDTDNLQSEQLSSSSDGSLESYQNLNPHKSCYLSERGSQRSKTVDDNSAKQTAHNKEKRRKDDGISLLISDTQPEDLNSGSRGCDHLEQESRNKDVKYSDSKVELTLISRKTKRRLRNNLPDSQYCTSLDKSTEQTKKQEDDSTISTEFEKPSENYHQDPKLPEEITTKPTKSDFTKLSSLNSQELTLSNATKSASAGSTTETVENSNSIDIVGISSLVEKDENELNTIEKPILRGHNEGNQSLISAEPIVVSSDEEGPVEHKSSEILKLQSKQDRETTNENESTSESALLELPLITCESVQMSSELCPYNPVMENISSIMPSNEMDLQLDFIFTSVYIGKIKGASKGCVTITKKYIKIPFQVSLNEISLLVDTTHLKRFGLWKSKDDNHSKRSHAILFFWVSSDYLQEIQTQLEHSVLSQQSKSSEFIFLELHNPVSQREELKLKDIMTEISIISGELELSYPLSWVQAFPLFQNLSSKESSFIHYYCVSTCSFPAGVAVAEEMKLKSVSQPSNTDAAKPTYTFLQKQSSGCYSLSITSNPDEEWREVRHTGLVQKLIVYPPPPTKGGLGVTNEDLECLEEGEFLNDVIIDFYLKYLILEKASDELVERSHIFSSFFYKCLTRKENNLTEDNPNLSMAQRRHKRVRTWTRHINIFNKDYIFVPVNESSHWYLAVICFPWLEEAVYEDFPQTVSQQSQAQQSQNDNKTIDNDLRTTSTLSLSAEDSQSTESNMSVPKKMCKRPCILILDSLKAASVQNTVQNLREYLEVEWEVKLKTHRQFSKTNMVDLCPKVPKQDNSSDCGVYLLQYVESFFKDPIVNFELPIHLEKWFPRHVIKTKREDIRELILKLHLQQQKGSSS
It is filed as functional.

Assay [9] can be described thus: Luminescence Cell-Based Dose Response HTS to Identify Inhibitors of 5'UTR Stem-Loop Driven Prion Protein mRNA Translation in H4 Neuroglioblastoma Cells. [Related pubchem assays: 1827 (Project Summary), 1813 (Primary HTS)]. Type of assay: functional.
The nature of assay [10]: inhibitors of SNCA 5'UTR-driven reporter translation, confirmation, H4 neuroglioma cells, luminescence (AID 1988). Type of assay: functional, cell-based.
Assay [11] addresses T4, Caspase-3 (Homo sapiens, UniProt P42574).
T4 sequence (P42574 whole entry): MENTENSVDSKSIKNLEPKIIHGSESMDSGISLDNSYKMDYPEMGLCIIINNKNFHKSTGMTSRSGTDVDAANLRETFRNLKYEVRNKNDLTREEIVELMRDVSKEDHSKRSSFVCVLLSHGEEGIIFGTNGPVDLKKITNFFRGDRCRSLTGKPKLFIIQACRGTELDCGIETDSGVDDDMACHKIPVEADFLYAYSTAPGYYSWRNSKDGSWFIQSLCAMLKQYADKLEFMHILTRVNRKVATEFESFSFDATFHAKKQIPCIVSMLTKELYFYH
Type of assay: functional.

The target in assay [12] is T2, Sentrin-specific protease 6. The experiment in a line: SAR Analysis of small molecule inhibitors of Sentrin-specific protease 6 (SENP6) using a Luminescent assay. [Related pubchem assays (depositor defined):AID2582, AID2599]. It is filed as functional.
The target of assay [13] is T4, Caspase-3. The experiment in a line: SAR Analysis of small molecule inhibitors of Sentrin-specific proteases (SENPs) using a Caspase-3 Selectivity assay. [Related pubchem assays (depositor defined):AID2540, AID2599, AID434973, AID489001]. Type of assay: functional.
For assay [14], the system named is Streptococcus sp. 'group A'. The experiment in a line: growth inhibition of control SK(-) GAS strain, dose response, counter-screen for streptokinase expression inhibitor project, luminescence, kanamycin, BacTiterGlo, confirmation (AID 1900). It is filed as functional, organism-based.
The target of assay [15] is Nonstructural protein 1 (Influenza A virus, UniProt Q194T2). Type of assay: functional, Influenza A virus (A/California/07/2009(H1N1)).
Assay [16] concerns HEK293. The experiment in a line: inhibitors of LMP1-driven NF-kB reporter, dose response, cell-based, HEK293, luciferase, cherry-pick (AID 588343). Type of assay: functional. The settings on record: Homo sapiens.
Assay [17] has as its target T3, Sentrin-specific protease 7. As to the kind of experiment: SENP7 protease inhibitors, SAR follow-up, biochemical, luminescence (AID 504497). It is filed as functional.
Assay [18] deals with T5, Sentrin-specific protease 8 (Homo sapiens, UniProt Q96LD8).
T5 sequence (Q96LD8 whole entry): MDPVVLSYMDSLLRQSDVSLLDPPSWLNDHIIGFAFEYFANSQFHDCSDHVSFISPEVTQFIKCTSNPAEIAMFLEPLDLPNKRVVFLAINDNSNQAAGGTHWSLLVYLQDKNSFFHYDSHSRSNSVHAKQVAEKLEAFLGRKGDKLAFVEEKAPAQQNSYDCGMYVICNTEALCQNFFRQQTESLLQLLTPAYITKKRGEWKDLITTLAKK
As to the kind of experiment: SENP8 protease inhibitors, SAR follow-up, biochemical, luminescence (AID 504501). Type of assay: functional.

The target in assay [19] is T5, Sentrin-specific protease 8. Type of assay: functional.

The source made the active and inactive calls.

Sequence of Nonstructural protein 1 (Q194T2 whole entry): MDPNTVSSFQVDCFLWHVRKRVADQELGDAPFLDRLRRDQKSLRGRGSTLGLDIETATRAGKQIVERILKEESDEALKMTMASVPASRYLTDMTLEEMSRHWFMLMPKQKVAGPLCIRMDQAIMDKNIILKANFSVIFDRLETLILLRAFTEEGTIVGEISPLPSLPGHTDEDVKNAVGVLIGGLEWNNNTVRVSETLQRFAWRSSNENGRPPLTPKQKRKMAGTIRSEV

On to `COCCN=C(S)N(C)C1(c2ccccc2Cl)CCCCC1=O` (stereo not drawn), for which, in [1], the IC50 was > 89.2 µM (inactive). The EC50 was > 55.9 µM (inactive) in assay [2], > 54.7 µM (inactive) in assay [3] and > 54.7 µM (inactive) in assay [4].

Turning to `COc1c(C(=O)Nc2ccc3[nH]c(O)nc3c2)cc2ccccc2c1Br`, the IC50 in assay [1] was 34.5 µM (inactive). Further, the EC50 in assay [2], in assay [3] and in [4] was > 54.7 µM (inactive) throughout.

`O=[N+]([O-])c1ccc(O)c(/C=N/Nc2ncnc3c2cnn3-c2ccccc2)c1`: the IC50 is 11.3 µM (active) in [5]; 1.94 µM (active) in assay [8]; > 100 µM (inactive) in assay [11]; 1.54 µM (active) in assay [12]; 4.42 µM (active) in [13]; > 100 µM (active) in assay [15]. Moreover, the figures for the IC50 in assay [17], in assay [18] and in assay [19] were 1.4 µM (active), 1.49 µM (active) and 2.44 µM (active), respectively. Besides, the EC50 is 11.4 µM (active) in assay [6]; 1.01 µM (active) in assay [7]; 23.6 µM (active) in assay [9]; 5.1 µM (inconclusive) in assay [10]; 1.02 µM (active) in assay [14]. The concentration at half-maximal activity (AC50) in [16] is 18.5 µM (active).

By IC50 is commonly meant the concentration at which inhibition is half-maximal. A word on the EC50: it is the concentration needed to bring the measured effect to its halfway point. In general, AC50 refers to the concentration giving half of the maximal activity seen.
